Source: patent US20240101551A1, “CRYSTAL FORM AND SALT FORM OF BROMINE DOMAIN PROTEIN INHIBITOR AND PREPARATION METHOD THEREFOR” (CHIA TAI TIANQING PHARMACEUTICAL GROUP CO., LTD., priority 2020, published 2024)
“And” between values parts separate entries of the source, which are not always exact repeats. Equal entries are not always repeated.

Assays:
Format in all cases: physicochemical
[1] = Study on stability under influencing factors (high temperature, high humidity, light) of the crystal forms
Protocol: In order to evaluate the solid stability of the crystal forms of the present application, the stability of each of the crystal form I, the crystal form A, the crystal form D, the crystal form E and the crystal form F under influencing factors (high temperature, high humidity and light) was investigated. Each of the crystal forms was stored under the high temperature condition (60±2° C., open (weighing bottle)), and the high humidity condition (room temperature, 92.5%±5% RH, open (weighing bottle) and packaged) for 5 days, 10 days and 30 days, and under the ICH light condition (5500 Lux, 0.9 w/m^2, closed (weighing bottle) and packaged) for 5 days and 10 days. The inner packaging material of the packaged sample was a medical low-density polyethylene bag, and the outer packaging material is a medical polyester/aluminum/polyethylene composite bag. The samples after the storage were characterized by properties, purity (HPLC), crystal form (XRD) and water content to detect the changes in the crystal form and purity. The results are shown in Tables 8-12 (“^#” indicates the ICH condition).

[2] = Study on stability of the crystal form I under influencing factors (Experimental Example 2)
Protocol: In order to evaluate the solid stability of the crystal form I of the present application, the stability of the crystal form I under influencing factors (high temperature, high humidity and light) was investigated. The crystal form I was stored under the high temperature condition (40° C., open (weighing bottle)), the high temperature condition (60° C., open (weighing bottle)), the high humidity condition (room temperature, 75% RH, open (weighing bottle)) and the high humidity condition (room temperature, 92.5% RH, open (weighing bottle) and packaged) for 5 days, 10 days and 30 days, and under the ICH light condition (5500 Lux, 0.9 w/m^2, open (weighing bottle) and packaged) for 5 days and 10 days. The inner packaging material of the packaged sample was a double-layer low-density polyethylene bag, and the outer packaging material is a polyester/aluminum/polyethylene composite bag for medicine packaging. The samples after the storage were determined for properties, related substances (HPLC), crystal form (XRD), water content and content to investigate the influence of high temperature, high humidity and light conditions on the product. The results are shown in Table 13 (“^#” indicates the ICH condition).

[3] = Particle size distribution test after jet milling (light scattering); settings: for X90 Mean: mean of 3 experiments; for X90: single experiments 1-3
Protocol: The particle size distribution X90 described herein is determined by a light scattering method (Method 3 of Determination of Particle Size and Distribution of General Chapter 0982, Chinese Pharmacopoeia, Volume IV, 2020 Edition).
After jet milling, the crystal form I was tested for the particle size distribution by referring to Method 3 (a light scattering method) of Determination of Particle Size and Distribution of General Chapter 0982, Chinese Pharmacopoeia, Volume IV, 2020 Edition, with the specific steps as follows: 10 mg of the sample was weighed and placed in a laser scattering particle size distribution analyzer for testing (trigger conditions: 10 s, 1%; dispersion pressure: 2.0 bar).

[4] = Study on accelerated stability and long-term stability of the crystal form I; settings: long-term, 25° C. ± 2° C., 60% ± 5% RH, packaged
[5] = 92.5% RH, room temperature, open, 5 days
[6] = 92.5% RH, room temperature, open, 10 days
[7] = 92.5% RH, room temperature, open, 30 days
[8] = Light (ICH, 5500 Lux), closed, 10 days
[9] = 75% RH, room temperature, open, 5 days
[10] = 75% RH, room temperature, open, 10 days
[11] = 75% RH, room temperature, open, 30 days
[12] = Light (ICH, 5500 Lux), open, 5 days
[13] = Light (ICH, 5500 Lux), open, 10 days

In the case of `Cn1cc(-c2nc(N=S(C)(C)=O)ccc2Oc2ccc(F)cc2F)c2cc[nH]c2c1=O` [crystal form I], the Impurity content ([1]; 60° C., open, 5 days) is reported as 1.23%, the Crystal form change ([1]; 60° C., open, 10 days) is reported as “Unchanged” and the Impurity content ([1]; 60° C., open, 10 days) is reported as 1.21%. The Water content ([1]; 60° C., open, 10 days) was 0.19%, the Crystal form change ([1]; 60° C., open, 30 days) was “Unchanged” and the Impurity content ([1]; 60° C., open, 30 days) was 1.31%. For the same molecule, the Water content ([1]; 60° C., open, 30 days) was 0.15%, the Crystal form change ([1]; 92.5% RH, packaged, 30 days) was “Unchanged” and the Impurity content ([1]; 92.5% RH, packaged, 30 days) was 1.32%. For the same molecule, the Water content ([1]; 92.5% RH, packaged, 30 days) was 0.23%, the Impurity content [1, 5] was 1.23% and the Crystal form change [1, 6] was “Unchanged”. For the same molecule, the Impurity content [1, 6] was 1.23%, the Water content [1, 6] was 0.36% and the Crystal form change [1, 7] was “Unchanged”. The Impurity content [1, 7] was 1.30%, the Water content [1, 7] was 0.31% and the Crystal form change ([1]; Light (ICH), packaged, 10 days) was “Unchanged”. For the same molecule, the Impurity content ([1]; Light (ICH), packaged, 10 days) was 1.21%, the Water content ([1]; Light (ICH), packaged, 10 days) was 0.30% and the Impurity content ([1]; Light (ICH, 5500 Lux), closed, 5 days) was 1.18%. The Crystal form change [1, 8] was “Unchanged”, the Impurity content [1, 8] was 1.21% and the Water content [1, 8] was 0.34%. For the same molecule, the Impurity content ([1]; starting crystal form) was 1.20%, the Water content ([1]; starting crystal form) was 0.39% and the Crystal form change ([2]; 40° C., open, 5 days) was “Unchanged”. The Impurity content ([2]; 40° C., open, 5 days) was 0.06%, the Water content ([2]; 40° C., open, 5 days) was 0.02% and the Crystal form change ([2]; 40° C., open, 10 days) was “Unchanged”. The Impurity content ([2]; 40° C., open, 10 days) was 0.08%, the Water content ([2]; 40° C., open, 10 days) was 0.01% and the Crystal form change ([2]; 40° C., open, 30 days) was “Unchanged”. For the same molecule, the Impurity content ([2]; 40° C., open, 30 days) was 0.08%, the Water content ([2]; 40° C., open, 30 days) was 0.02% and the Crystal form change ([2]; 60° C., open, 5 days) was “Unchanged”. For the same molecule, the Impurity content ([2]; 60° C., open, 5 days) was 0.07%, the Water content ([2]; 60° C., open, 5 days) was 0.01% and the Crystal form change ([2]; 60° C., open, 10 days) was “Unchanged”. For the same molecule, the Impurity content ([2]; 60° C., open, 10 days) was 0.08%, the Water content ([2]; 60° C., open, 10 days) was 0.01% and the Crystal form change ([2]; 60° C., open, 30 days) was “Unchanged”. For the same molecule, the Impurity content ([2]; 60° C., open, 30 days) was 0.09%, the Water content ([2]; 60° C., open, 30 days) was 0.02% and the Crystal form change [2, 9] was “Unchanged”. The Impurity content [2, 9] was 0.06%, the Water content [2, 9] was 0.02% and the Crystal form change [2, 10] was “Unchanged”. The Impurity content [2, 10] was 0.08%, the Water content [2, 10] was 0.03% and the Crystal form change [2, 11] was “Unchanged”. The Impurity content [2, 11] was 0.08%, the Water content [2, 11] was 0.04% and the Crystal form change ([2]; 92.5% RH, packaged, 5 days) was “Unchanged”. The Impurity content ([2]; 92.5% RH, packaged, 5 days) was 0.06%, the Water content ([2]; 92.5% RH, packaged, 5 days) was 0.02% and the Crystal form change ([2]; 92.5% RH, packaged, 10 days) was “Unchanged”. The Impurity content ([2]; 92.5% RH, packaged, 10 days) was 0.08%, the Water content ([2]; 92.5% RH, packaged, 10 days) was 0.01% and the Crystal form change ([2]; 92.5% RH, packaged, 30 days) was “Unchanged”. For the same molecule, the Impurity content ([2]; 92.5% RH, packaged, 30 days) was 0.08%, the Water content ([2]; 92.5% RH, packaged, 30 days) was 0.03% and the Crystal form change [2, 5] was “Unchanged”. The Impurity content [2, 5] was 0.06%, the Water content [2, 5] was 0.03% and the Crystal form change [2, 6] was “Unchanged”. For the same molecule, the Impurity content [2, 6] was 0.08%, the Water content [2, 6] was 0.03% and the Crystal form change [2, 7] was “Unchanged”. For the same molecule, the Impurity content [2, 7] was 0.08%, the Water content [2, 7] was 0.06% and the Crystal form change ([2]; Light (ICH), packaged, 5 days) was “Unchanged”. The Impurity content ([2]; Light (ICH), packaged, 5 days) was 0.06%, the Water content ([2]; Light (ICH), packaged, 5 days) was 0.02% and the Crystal form change ([2]; Light (ICH), packaged, 10 days) was “Unchanged”. The Impurity content ([2]; Light (ICH), packaged, 10 days) was 0.08%, the Water content ([2]; Light (ICH), packaged, 10 days) was 0.02% and the Crystal form change [2, 12] was “Unchanged”. The Impurity content [2, 12] was 0.06%, the Water content [2, 12] was 0.01% and the Crystal form change [2, 13] was “Unchanged”. The Impurity content [2, 13] was 0.08%, the Water content [2, 13] was 0.02% and the Impurity content ([2]; starting crystal form I) was 0.05%. For the same molecule, the Water content ([2]; starting crystal form I) was 0.02%, the “X90 Mean” value ([3]; milling pressure 0.1 MPa) was 11.50 μm and the X90 ([3]; milling pressure 0.1 MPa) was 11.54 μm and 11.46 μm and 11.50 μm. The “X90 Mean” value ([3]; milling pressure 0.3 MPa) was 5.82 μm, the X90 ([3]; milling pressure 0.3 MPa) was 5.78 μm and 6.02 μm and 5.67 μm and the Impurity content ([4]; 3 months) was 0.08%. For the same molecule, the Water content ([4]; 3 months) was 0.03% and the Water content ([4]; 6 months) was 0.04%.
